Data taken from PubChem BioAssay AID2060341 (Molecular Pharmacology Branch, DTP, NCI, 2025).
Several values for one entry are separate records, joined by “and”; a condition that tells them apart may be missing. Equal values may be shown once.

Test system: 327498-153-R-J2-PDC multicell spheroid viability
Assay: Anticancer human tumor 327498-153-R-J2-PDC patient-derived uterine carcinosarcoma cell line growth inhibition [IpAb]
Conditions: for viability, T/C: stronger effect = lower value
Excerpt: Combinatorial screen of targeted agents with ipatasertib and abemaciclib in multi-cell type tumor spheroids
A high-throughput screen of multi-cell type tumor spheroids was designed to identify active combinations of targeted small molecules and ipatasertib or abemaciclib. Complex spheroids include a stromal component modeled by human endothelial cells (HUVEC) and fibroblasts modeled by human mesenchymal stem cells (MSCs). The concentration ranges selected for each drug and investigational agent were based upon clinically achievable concentrations if the clinical Cmax of the agent was known.
Compounds. The drugs and investigational agents: ipatasertib (NSC767898), abemaciclib(NSC768073), selumetinib (NSC741078), trametinib (758246), adavosertib (NSC754352), everolimus (NSC733504), sapanisertib (NSC764658), vemurafenib (NSC761431), venetoclax (NSC766270), copanlisib (NSC809693), apelisib (NSC765974), palbociblib (NSC758247), vemurafenib (NSC761431), dabrafenib (NSC764134), ravoxertinib (NSC781343), BMS-387032 (NSC767048), sotorasib (NSC818433), talazoparib (NSC767125) and afursertib (NSC778305), were obtained from the National Cancer Institute (NCI) Developmental Therapeutics Program Chemical Repository. The FDA-approved anticancer drug set is available from the NCI Developmental Therapeutics Program. […] The stock solutions were prepared in dimethyl sulfoxide (DMSO, Sigma-Aldrich, St. Louis, MO, cat. D2650) at 800-fold the tested concentration and stored at -70 degrees C prior to their use. All drugs and investigational agents were tested over a range starting from a high concentration at or near the clinical Cmax and decreasing in half-log increments. If the clinical Cmax for an agent had not been determined, the highest concentration tested was 10 microM.
NCI60 Cell Culture. NCI60 cell lines were obtained from the NCI Developmental Therapeutics Program Tumor Repository. For each lot of cells, the Repository performed Applied Biosystems AmpFLSTR Identifiler testing with PCR amplification to confirm consistency with the published Identifier STR profile for each cell line. Cells were kept in continuous culture for no more than 20 passages. The optimal seeding densities for each of the cell lines at each time point assessed were determined prior to performing the concentration response studies. Briefly, the NCI60 human tumor lines were grown as monolayers in RPMI 1640 medium supplemented with 10% FBS and 2 mmol/L L-glutamine.
An additional 9 lines were from the NCI60 cell line panel including MDA-MB-231 breast carcinoma, MDA-MB-468 breast carcinoma, MCF7 breast carcinoma, Hs578T breast carcinoma, MALME-3M melanoma, SK-MEL-2 melanoma, SK-OV-3 ovarian carcinoma, DU-145 prostate carcinoma, PC-3 prostate carcinoma, all cell lines along with major genetic alterations are listed on Table 2. Pooled donor human umbilical vein endothelial cells (HUVEC, Lonza, cat. CC-2519) and human mesenchymal stem cells (hMSC, Lonza, cat. PT-2501) were purchased from Lonza (Walkersville, MD).
PDMR cell lines were grown in complete medium (DC medium): Dulbecco's modified Eagle's medium (DMEM)/F12 supplemented with 5% fetal bovine serum (FBS), 2 mM L-glutamine, 100 U/mL penicillin and 100 µg/ml streptomycin, 0.4 µg/ml hydrocortisone, 10 ng/ml epidermal growth factor (EGF) recombinant human protein, 24 µg/mL adenine, and 0.1 mg/mL primocin. During culture from frozen stock vials, PDMR cells were cultured in the same medium containing 10 µM Y-27632 (see Table 3). The PDCs were cultured in complete DMEM/F12 media without 10 microM Y-27632 dihydrochloride for at least two passages prior to the screen. The pooled donor HUVEC and hMSC were cultured in endothelial cell growth medium 2 (PromoCell, Heidelberg, Germany, cat. C-22011) and mesenchymal stem cell growth medium 2 (PromoCell, cat. C-28009), respectively. For all experiments, HUVEC and hMSC were used at passages </=5.
[…]

[1] = curve of first compound, second compound 0.1 µM
[2] = curve of first compound, second compound 0.316 µM
[3] = curve of first compound, second compound 1 µM
[4] = curve of first compound, second compound 3.16 µM
[5] = curve of first compound, second compound 10 µM
[6] = second compound 0.1 µM, first compound 0.0316 µM
[7] = second compound 0.1 µM, first compound 0.1 µM
[8] = second compound 0.1 µM, first compound 0.316 µM
[9] = second compound 0.1 µM, first compound 1 µM
[10] = second compound 0.1 µM, first compound 3.16 µM
[11] = second compound 0.1 µM, first compound 10 µM
[12] = second compound 0.316 µM, first compound 0.0316 µM
[13] = second compound 0.316 µM, first compound 0.1 µM
[14] = second compound 0.316 µM, first compound 0.316 µM
[15] = second compound 0.316 µM, first compound 1 µM
[16] = second compound 0.316 µM, first compound 3.16 µM
[17] = second compound 0.316 µM, first compound 10 µM
[18] = second compound 1 µM, first compound 0.0316 µM
[19] = second compound 1 µM, first compound 0.1 µM
[20] = second compound 1 µM, first compound 0.316 µM
[21] = second compound 1 µM, first compound 1 µM
[22] = second compound 1 µM, first compound 3.16 µM
[23] = second compound 1 µM, first compound 10 µM
[24] = second compound 3.16 µM, first compound 0.0316 µM
[25] = second compound 3.16 µM, first compound 0.1 µM
[26] = second compound 3.16 µM, first compound 0.316 µM
[27] = second compound 3.16 µM, first compound 1 µM
[28] = second compound 3.16 µM, first compound 3.16 µM
[29] = second compound 3.16 µM, first compound 10 µM
[30] = second compound 10 µM, first compound 0.0316 µM
[31] = second compound 10 µM, first compound 0.1 µM
[32] = second compound 10 µM, first compound 0.316 µM
[33] = second compound 10 µM, first compound 1 µM
[34] = second compound 10 µM, first compound 3.16 µM
[35] = second compound 10 µM, first compound 10 µM
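Further: spheroids exposed to agents for 7 days.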
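Wherever viability, T/C is given: 100% = DMSO vehicle control viability.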

| SMILES | IC50 [1] | IC50 [2] | IC50 [3] | viability, T/C [6] | viability, T/C [7] | viability, T/C [8] | viability, T/C [9] | viability, T/C [10] | viability, T/C [11] | viability, T/C [12] | viability, T/C [13] | viability, T/C [14] | viability, T/C [15] | viability, T/C [16] | viability, T/C [17] | viability, T/C [18] | viability, T/C [19] | viability, T/C [20] | viability, T/C [21] | viability, T/C [22] | other results |
| --- | --- | --- | --- | --- | --- | --- | --- | --- | --- | --- | --- | --- | --- | --- | --- | --- | --- | --- | --- | --- | --- |
| Cn1cnc2c(F)c(Nc3ccc(Br)cc3Cl)c(C(=O)NOCCO)cc21 |  |  |  |  |  |  |  |  |  |  |  |  |  |  |  |  |  |  |  |  | viability, T/C (compound 0.00949 µM): 94% and 97.4%; viability, T/C (compound 0.03 µM): 86.6% and 73.7%; viability, T/C (compound 0.0949 µM): 85.2% and 77.9%; viability, T/C (compound 0.3 µM): 64.3% and 67.1%; viability, T/C (compound 0.949 µM): 69.9% and 51.7%; viability, T/C (compound 3 µM): 49.4% and 36.6%; IC50 (curve of compound): > 3000 nM and 1070 nM |
| C=CCn1c(=O)c2cnc(Nc3ccc(N4CCN(C)CC4)cc3)nc2n1-c1cccc(C(C)(C)O)n1 + CC(C)NCC(C(=O)N1CCN(c2ncnc3c2C(C)CC3O)CC1)c1ccc(Cl)cc1 | 259 nM | 151 nM | 101 nM | 90.3% | 83.2% | 43.2% | 3.61% | 3.91% | 6.69% | 73.8% | 65.2% | 22.6% | 3.04% | 3.47% | 6.17% | 49.6% | 50.5% | 17.3% | 3.25% | 2.88% | IC50 [4]: < 31.6 nM; IC50 [5]: < 31.6 nM; viability, T/C [23]: 5.72%; viability, T/C [24]: 45.1%; viability, T/C [25]: 35.2%; viability, T/C [26]: 11.5%; viability, T/C [27]: 3.53%; viability, T/C [28]: 3.4%; viability, T/C [29]: 4.64%; viability, T/C [30]: 30.4%; viability, T/C [31]: 27.4%; viability, T/C [32]: 8.25%; viability, T/C [33]: 3%; viability, T/C [34]: 3.44%; viability, T/C [35]: 4.49% |
| C=CC(=O)N1CCN(c2nc(=O)n(-c3c(C)ccnc3C(C)C)c3nc(-c4c(O)cccc4F)c(F)cc23)C(C)C1 (centres undefined) + CC(C)NCC(C(=O)N1CCN(c2ncnc3c2C(C)CC3O)CC1)c1ccc(Cl)cc1 | 219 nM | < 31.6 nM | < 31.6 nM | 66.7% | 55.7% | 45.3% | 46.4% | 43.8% | 40.8% | 46.2% | 36.6% | 36.8% | 30.3% | 30.5% | 29.1% | 37.3% | 25.6% | 22.4% | 22.4% | 21.1% | IC50 [4]: < 31.6 nM; IC50 [5]: < 31.6 nM; viability, T/C [23]: 18.9%; viability, T/C [24]: 28.9%; viability, T/C [25]: 19.3%; viability, T/C [26]: 15.7%; viability, T/C [27]: 16.6%; viability, T/C [28]: 15%; viability, T/C [29]: 15.7%; viability, T/C [30]: 15.2%; viability, T/C [31]: 14.2%; viability, T/C [32]: 14.5%; viability, T/C [33]: 13.3%; viability, T/C [34]: 12.1%; viability, T/C [35]: 11.4% |
| Cc1nc(NC(=O)N2CCCC2C(N)=O)sc1-c1ccnc(C(C)(C)C(F)(F)F)c1 (centres undefined) |  |  |  |  |  |  |  |  |  |  |  |  |  |  |  |  |  |  |  |  | viability, T/C (compound 0.0316 µM): 97.9% and 110%; viability, T/C (compound 0.1 µM): 95.7% and 102%; viability, T/C (compound 0.316 µM): 90% and 98.9%; viability, T/C (compound 1 µM): 77% and 89.3%; viability, T/C (compound 3.16 µM): 76.2% and 80.2%; viability, T/C (compound 10 µM): 63% and 60.7%; IC50 (curve of compound): > 10000 nM |
| Cn1ncc(Cl)c1-c1cc(C(=O)NC(CN)Cc2cccc(F)c2)sc1Cl (centres undefined) + CCN1CCN(Cc2ccc(Nc3ncc(F)c(-c4cc(F)c5nc(C)n(C(C)C)c5c4)n3)nc2)CC1 | 50.1 nM | < 31.6 nM | 64.4 nM | 53.4% | 46.2% | 34.4% | 28.1% | 21.1% | 0.12% | 48.9% | 44.5% | 33.9% | 28.9% | 20.6% | 0.14% | 54.1% | 49.1% | 34.9% | 29.9% | 21.7% | IC50 (curve of first compound, second compound 0.01 µM): 312 nM; IC50 (curve of first compound, second compound 0.0316 µM): 125 nM; viability, T/C (second compound 0.01 µM, first compound 0.0316 µM): 78%; viability, T/C (second compound 0.01 µM, first compound 0.1 µM): 60.3%; viability, T/C (second compound 0.01 µM, first compound 0.316 µM): 48.7%; viability, T/C (second compound 0.01 µM, first compound 1 µM): 35.4%; viability, T/C (second compound 0.01 µM, first compound 3.16 µM): 24.5%; viability, T/C (second compound 0.01 µM, first compound 10 µM): 0.14%; viability, T/C (second compound 0.0316 µM, first compound 0.0316 µM): 64.5%; viability, T/C (second compound 0.0316 µM, first compound 0.1 µM): 49%; viability, T/C (second compound 0.0316 µM, first compound 0.316 µM): 40.5%; viability, T/C (second compound 0.0316 µM, first compound 1 µM): 27.9%; viability, T/C (second compound 0.0316 µM, first compound 3.16 µM): 24%; viability, T/C (second compound 0.0316 µM, first compound 10 µM): 0.12%; viability, T/C [23]: 0.2% |
